The target in experiment [1] is T1, human α1G T-type channels (Homo sapiens, UniProt O43497).
T1 construct: expressed in transfected cells; host or cells: HEK 293
The experiment can be described thus: T-type calcium channel block, whole cell patch clamp in HEK cells (α1G). In kind it is cell-based. The settings on record: HEK cells, patch clamp, mainly non-inactivated protocol; values above 10 μM shown as 10 μM, below 0.30 μM shown as 0.30 μM; read-out: T-type Calcium Channel Block α1G IC50.

Experiment [2] concerns the target T2, human α1H T-type channels (Homo sapiens, UniProt O95180).
T2 construct: expressed in transfected cells; host or cells: HEK 293
Put plainly: T-type calcium channel block, whole cell patch clamp in HEK cells (α1H). It is filed as cell-based. The settings on record: HEK cells, patch clamp, mainly non-inactivated protocol; values above 10 μM shown as 10 μM; read-out: T-type Calcium Channel Block α1H IC50. (In general: In patch-clamp work, channel activity is measured electrically.)

From patent US8569344B2, “N-piperidinyl acetamide derivatives as calcium channel blockers” (Zalicus Pharmaceuticals Ltd., priority 2008, dated 2013) come the findings set out here.

T2 sequence (O95180 whole entry): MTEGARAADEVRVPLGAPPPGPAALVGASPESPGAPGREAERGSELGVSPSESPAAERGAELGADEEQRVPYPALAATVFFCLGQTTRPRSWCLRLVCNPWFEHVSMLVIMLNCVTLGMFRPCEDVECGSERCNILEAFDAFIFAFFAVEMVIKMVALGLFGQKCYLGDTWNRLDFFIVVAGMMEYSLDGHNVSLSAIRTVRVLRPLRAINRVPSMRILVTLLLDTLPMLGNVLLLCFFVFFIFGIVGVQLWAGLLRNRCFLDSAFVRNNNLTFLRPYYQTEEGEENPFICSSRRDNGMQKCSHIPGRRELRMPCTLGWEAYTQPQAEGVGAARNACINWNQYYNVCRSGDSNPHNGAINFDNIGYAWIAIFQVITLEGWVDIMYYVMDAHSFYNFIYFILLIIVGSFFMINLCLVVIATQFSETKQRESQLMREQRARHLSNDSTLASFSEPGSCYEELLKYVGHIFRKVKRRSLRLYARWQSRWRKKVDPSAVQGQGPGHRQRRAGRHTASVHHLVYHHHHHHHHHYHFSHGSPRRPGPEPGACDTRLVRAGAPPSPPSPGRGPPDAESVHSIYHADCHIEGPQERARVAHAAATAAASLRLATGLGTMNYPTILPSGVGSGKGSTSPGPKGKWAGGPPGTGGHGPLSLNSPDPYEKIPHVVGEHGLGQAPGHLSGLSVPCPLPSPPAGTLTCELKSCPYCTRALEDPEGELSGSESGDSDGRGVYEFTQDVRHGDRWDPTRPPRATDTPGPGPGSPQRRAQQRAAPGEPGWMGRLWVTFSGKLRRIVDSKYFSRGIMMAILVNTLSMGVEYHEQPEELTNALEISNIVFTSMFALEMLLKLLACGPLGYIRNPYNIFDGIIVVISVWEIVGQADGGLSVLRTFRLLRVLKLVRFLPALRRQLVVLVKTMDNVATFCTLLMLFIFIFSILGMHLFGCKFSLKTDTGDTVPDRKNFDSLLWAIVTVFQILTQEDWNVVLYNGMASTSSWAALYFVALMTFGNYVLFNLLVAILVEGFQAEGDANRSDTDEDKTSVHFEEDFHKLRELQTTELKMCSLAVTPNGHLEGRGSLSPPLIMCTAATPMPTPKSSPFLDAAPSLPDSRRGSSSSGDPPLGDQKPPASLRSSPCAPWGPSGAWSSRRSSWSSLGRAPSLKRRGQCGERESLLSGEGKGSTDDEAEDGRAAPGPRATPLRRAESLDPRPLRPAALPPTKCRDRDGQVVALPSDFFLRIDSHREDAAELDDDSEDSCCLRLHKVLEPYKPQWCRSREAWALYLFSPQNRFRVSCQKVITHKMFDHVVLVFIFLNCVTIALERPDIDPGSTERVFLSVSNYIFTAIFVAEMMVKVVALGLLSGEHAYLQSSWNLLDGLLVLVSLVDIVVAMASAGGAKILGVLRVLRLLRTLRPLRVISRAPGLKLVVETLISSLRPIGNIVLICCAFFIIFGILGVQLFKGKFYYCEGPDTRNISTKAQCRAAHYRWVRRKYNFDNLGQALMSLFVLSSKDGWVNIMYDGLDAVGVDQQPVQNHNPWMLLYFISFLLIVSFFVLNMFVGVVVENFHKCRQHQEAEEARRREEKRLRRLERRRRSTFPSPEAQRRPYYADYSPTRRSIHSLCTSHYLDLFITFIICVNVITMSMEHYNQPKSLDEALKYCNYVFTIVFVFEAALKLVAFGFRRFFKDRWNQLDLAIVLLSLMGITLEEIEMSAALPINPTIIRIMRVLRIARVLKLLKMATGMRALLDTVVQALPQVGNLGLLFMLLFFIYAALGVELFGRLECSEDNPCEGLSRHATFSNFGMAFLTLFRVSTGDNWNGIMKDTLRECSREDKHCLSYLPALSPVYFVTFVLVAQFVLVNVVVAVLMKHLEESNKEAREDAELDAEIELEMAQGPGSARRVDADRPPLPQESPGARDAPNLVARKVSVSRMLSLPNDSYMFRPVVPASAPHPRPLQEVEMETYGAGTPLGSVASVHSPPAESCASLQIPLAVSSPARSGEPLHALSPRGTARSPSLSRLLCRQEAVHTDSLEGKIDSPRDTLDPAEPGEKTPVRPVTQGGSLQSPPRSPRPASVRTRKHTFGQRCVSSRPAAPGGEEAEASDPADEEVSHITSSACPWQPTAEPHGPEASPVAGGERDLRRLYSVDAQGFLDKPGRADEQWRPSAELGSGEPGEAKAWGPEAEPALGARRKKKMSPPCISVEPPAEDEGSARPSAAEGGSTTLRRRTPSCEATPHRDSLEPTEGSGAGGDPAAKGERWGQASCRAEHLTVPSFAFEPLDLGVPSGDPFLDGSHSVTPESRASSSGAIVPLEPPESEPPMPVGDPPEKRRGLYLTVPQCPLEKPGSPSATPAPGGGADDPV
T1 sequence (O43497 whole entry): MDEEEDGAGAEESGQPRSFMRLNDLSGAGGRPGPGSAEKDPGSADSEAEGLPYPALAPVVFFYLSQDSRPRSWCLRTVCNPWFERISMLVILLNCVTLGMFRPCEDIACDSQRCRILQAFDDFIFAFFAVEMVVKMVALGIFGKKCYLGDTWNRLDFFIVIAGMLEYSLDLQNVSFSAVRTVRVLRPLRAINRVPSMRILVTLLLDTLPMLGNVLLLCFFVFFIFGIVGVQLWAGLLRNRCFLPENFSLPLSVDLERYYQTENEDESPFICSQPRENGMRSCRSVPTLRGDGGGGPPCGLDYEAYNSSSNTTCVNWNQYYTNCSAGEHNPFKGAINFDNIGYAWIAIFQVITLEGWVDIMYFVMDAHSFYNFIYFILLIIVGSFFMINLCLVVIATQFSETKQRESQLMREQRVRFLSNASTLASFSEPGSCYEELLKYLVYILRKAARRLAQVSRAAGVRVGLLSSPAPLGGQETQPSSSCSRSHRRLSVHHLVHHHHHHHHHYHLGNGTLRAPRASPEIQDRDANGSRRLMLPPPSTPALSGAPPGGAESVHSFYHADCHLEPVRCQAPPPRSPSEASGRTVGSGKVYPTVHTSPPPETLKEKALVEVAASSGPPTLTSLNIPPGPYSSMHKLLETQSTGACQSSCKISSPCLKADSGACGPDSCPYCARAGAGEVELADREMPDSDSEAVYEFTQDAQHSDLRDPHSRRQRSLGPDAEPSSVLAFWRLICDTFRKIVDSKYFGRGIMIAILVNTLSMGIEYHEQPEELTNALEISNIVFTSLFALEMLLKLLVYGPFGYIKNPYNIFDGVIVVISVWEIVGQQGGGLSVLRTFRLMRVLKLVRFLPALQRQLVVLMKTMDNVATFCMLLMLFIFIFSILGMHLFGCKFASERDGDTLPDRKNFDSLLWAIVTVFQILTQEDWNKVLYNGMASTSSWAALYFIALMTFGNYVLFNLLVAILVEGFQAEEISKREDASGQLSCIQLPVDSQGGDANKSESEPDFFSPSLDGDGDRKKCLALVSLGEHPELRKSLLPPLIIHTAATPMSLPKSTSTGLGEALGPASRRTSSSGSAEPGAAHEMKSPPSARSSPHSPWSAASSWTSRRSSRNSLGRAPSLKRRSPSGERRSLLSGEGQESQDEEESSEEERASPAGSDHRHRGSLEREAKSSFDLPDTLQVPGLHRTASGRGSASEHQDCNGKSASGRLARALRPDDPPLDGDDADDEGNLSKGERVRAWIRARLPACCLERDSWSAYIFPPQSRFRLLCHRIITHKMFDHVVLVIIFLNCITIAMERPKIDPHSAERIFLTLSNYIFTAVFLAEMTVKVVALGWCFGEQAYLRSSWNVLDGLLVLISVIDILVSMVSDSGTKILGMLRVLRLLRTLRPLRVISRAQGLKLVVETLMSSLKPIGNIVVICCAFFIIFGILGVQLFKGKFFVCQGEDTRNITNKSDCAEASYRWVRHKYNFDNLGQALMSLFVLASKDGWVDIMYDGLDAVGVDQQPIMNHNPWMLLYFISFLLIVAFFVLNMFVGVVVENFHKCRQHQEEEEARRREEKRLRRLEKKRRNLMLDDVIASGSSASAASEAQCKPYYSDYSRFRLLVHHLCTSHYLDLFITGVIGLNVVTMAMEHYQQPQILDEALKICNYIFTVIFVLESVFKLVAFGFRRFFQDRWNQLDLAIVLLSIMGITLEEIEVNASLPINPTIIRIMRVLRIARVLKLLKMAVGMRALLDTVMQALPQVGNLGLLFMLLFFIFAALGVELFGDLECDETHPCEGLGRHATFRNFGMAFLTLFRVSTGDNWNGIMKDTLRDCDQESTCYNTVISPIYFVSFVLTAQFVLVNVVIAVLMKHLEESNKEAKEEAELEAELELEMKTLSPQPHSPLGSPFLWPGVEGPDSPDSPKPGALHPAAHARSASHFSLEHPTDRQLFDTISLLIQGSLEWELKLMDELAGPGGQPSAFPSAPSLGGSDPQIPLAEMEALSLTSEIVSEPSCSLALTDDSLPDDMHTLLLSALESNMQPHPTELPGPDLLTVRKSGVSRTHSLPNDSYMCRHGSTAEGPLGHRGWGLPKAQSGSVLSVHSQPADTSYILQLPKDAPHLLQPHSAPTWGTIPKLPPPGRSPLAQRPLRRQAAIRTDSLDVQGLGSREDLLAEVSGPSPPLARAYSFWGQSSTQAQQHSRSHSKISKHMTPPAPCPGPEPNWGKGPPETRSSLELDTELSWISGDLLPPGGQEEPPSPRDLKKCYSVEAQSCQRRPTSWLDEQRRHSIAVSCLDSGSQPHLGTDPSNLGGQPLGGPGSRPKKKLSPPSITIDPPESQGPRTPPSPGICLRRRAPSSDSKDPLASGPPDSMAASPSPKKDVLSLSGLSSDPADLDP

In general, IC50 refers to the concentration that gives 50% inhibition. Consider `Cc1cc(F)cc(C(=O)NCC2CCN(CC(=O)NC(C)(C)C(F)(F)F)CC2)c1` [Compound 455, 3-fluoro-5-methyl-N-((1-(2-oxo-2-(1,1,1-trifluoro-2-methylpropan-2-ylamino)ethyl)piperidin-4-yl)methyl)benzamide], for which the IC50 was below 300 nM in experiment [1] and 30 nM in experiment [2].

As to `Cc1cc(F)cc(C(=O)NCC2CCN(CCNC(=O)C3(C(F)(F)F)CC3)CC2)c1` [Compound 498, 3-fluoro-5-methyl-N-((1-(2-(1-(trifluoromethyl)cyclopropanecarbox-amido)ethyl)piperidin-4-yl)methyl) benzamide], the IC50 was 770 nM in experiment [1] and 220 nM in experiment [2].

Consider `O=C(NCC1CCN(CC(=O)N2CCC[C@H]2C(F)(F)F)CC1)c1cccc(C(F)(F)F)c1` [Compound 467, (S)-N-((1-(2-oxo-2-(2-(trifluoromethyl)pyrrolidin-1-yl)ethyl)piperidin-4-yl)methyl)-3-(trifluoromethyl)benzamide], for which the IC50 was below 300 nM in experiment [1] and 170 nM in experiment [2].

For `CC(C)NC(=O)CN1CCC(CNC(=O)c2cc(F)cc(C(F)(F)F)c2)CC1` [Compound 350, 3-fluoro-N-((1-(2-(isopropylamino)-2-oxoethyl)piperidin-4-yl)methyl)-5-(trifluoromethyl)benzamide], the IC50 in experiment [1] was 910 nM; in experiment [2], 750 nM.

Regarding `CCC(C)(C)NC(=O)CN1CCC(CNC(=O)c2cc(F)cc(C(F)(F)F)c2)CC1` [Compound 353, 3-fluoro-N-((1-(2-oxo-2-(tert-pentylamino)ethyl)piperidin-4-yl)methyl)-5-(trifluoromethyl)benzamide], the half-inhibitory concentration (IC50) was below 300 nM in experiment [1] and 60 nM in experiment [2].

Take `CN(CC(=O)N1CCC(CNC(=O)c2cc(C(F)(F)F)cc(C(F)(F)F)c2)CC1)C1CCCCC1` [Compound 246, N-((1-(2-(cyclohexyl(methyl)amino)acetyl)piperidin-4-yl)methyl)-3,5-bis(trifluoromethyl)benzamide]: the values for the concentration for half-maximal inhibition (IC50) in experiment [1] and in experiment [2] were 1310 nM and 1130 nM, respectively.

On to `CC(C)(C)NCC(=O)N1CCC(CNC(=O)c2cc(C(F)(F)F)cc(C(F)(F)F)c2)CC1` [Compound 239, N-((1-(2-(tert-butylamino)acetyl)piperidin-4-yl)methyl)-3,5-bis(trifluoromethyl)benzamide], for which the figures for the IC50 in experiment [1] and in experiment [2] were below 300 nM and 1730 nM, respectively.

In the case of `COc1cc(F)cc(C(=O)NCC2CCN(CCNS(=O)(=O)C3CC3)CC2)c1` [Compound 321, N-((1-(2-(cyclopropanesulfonamido)ethyl)piperidin-4-yl)methyl)-3-fluoro-5-methoxybenzamide], the IC50 in experiment [1] turned out to be 1330 nM; in experiment [2] it was 1920 nM.

Turning to `COc1cc(C(=O)NCC2CCN(CCNC(=O)C(C)(C)C)CC2)cc(C(F)(F)F)c1` [Compound 303, 3-methoxy-N-((1-(2-pivalamidoethyl)piperidin-4-yl)methyl)-5-(trifluoromethyl)benzamide], the IC50 was below 300 nM in experiment [1] and 600 nM in experiment [2].

Turning to `Cc1cc(F)cc(C(=O)NCC2CCN(CC(=O)NC(C)C)CC2)c1` [Compound 437, 3-fluoro-N-((1-(2-(isopropylamino)-2-oxoethyl)piperidin-4-yl)methyl)-5-methylbenzamide], the IC50 in experiment [1] and in experiment [2] was above 10000 nM each time.

On to `CC(C)(C)NS(=O)(=O)CCN1CCC(CNC(=O)c2cc(F)cc(C(F)(F)F)c2)CC1` [Compound 514, N-((1-(2-(N-tert-butylsulfamoyl)ethyl)piperidin-4-yl)methyl)-3-fluoro-5-(trifluoromethyl)benzamide], for which the IC50 in experiment [1] is below 300 nM; in experiment [2] it was 310 nM.

Turning to `O=C(NCC1CCN(CCNC(=O)C2(C(F)(F)F)CC2)CC1)c1cccc(OC(F)(F)F)c1` [Compound 474, 3-(trifluoromethoxy)-N-((1-(2-(1-(trifluoromethyl)cyclopropanecarbox-amido)ethyl)piperidin-4-yl)methyl) benzamide], the IC50 in experiment [1] was below 300 nM; in experiment [2], 40 nM.

For `CC(C)COC(=O)NC(CN1CCC(CC(=O)NCc2cc(Cl)cc(Cl)c2)CC1)C(C)(C)C` (stereo not shown) [Compound 225, isobutyl 1-(4-(2-(3,5-dichlorobenzyl-amino)-2-oxoethyl)piperidin-1-yl)-3,3-dimethylbutan-2-ylcarbamate], the IC50 was 520 nM in experiment [1] and 770 nM in experiment [2].

For `COc1cc(C(=O)NCC2CCN(CC(=O)NC(C)(C)C)CC2)cc(C(F)(F)F)c1` [Compound 379, N-((1-(2-(tert-buylamino)-2-oxoethyl)piperidin-4-yl)methyl)-3-methoxy-5-(trifluoromethyl)benzamide], the IC50 in experiment [1] is below 300 nM; in experiment [2] it was 130 nM.

In the case of `CN(CCN1CCC(CNC(=O)c2cc(F)cc(C(F)(F)F)c2)CC1)C(=O)NC(C)(C)C` [Compound 523, N-((1-(2-(3-tert-butyl-1-methylureido)ethyl)piperidin-4-yl)methyl)-3-fluoro-5-(trifluoromethyl) benzamide], the IC50 in experiment [1] was found to be 5740 nM; in experiment [2] it was 910 nM.

On to `O=C(NCC1CCN(C(=O)CNC2CCCC2)CC1)c1cc(F)cc(C(F)(F)F)c1` [Compound 273, N-((1-(2-(cyclopentylamino)acetyl)piperidin-4-yl)methyl)-3-fluoro-5-(trifluoromethyl)benzamide], for which the IC50 in experiment [1] is 360 nM; in experiment [2], 1420 nM.

Turning to `CCC1CCCN1CC(=O)N1CCC(CNC(=O)c2cc(C(F)(F)F)cc(C(F)(F)F)c2)CC1` (stereo not shown) [Compound 253, N-((1-(2-(2-ethylpyrrolidin-1-yl)acetyl)piperidin-4-yl)methyl)-3,5-bis(trifluoromethyl)benzamide], the IC50 in experiment [1] worked out at 480 nM; in experiment [2] it was 1310 nM.

Turning to `CN(CC(=O)N1CCC(CNC(=O)c2cc(F)cc(C(F)(F)F)c2)CC1)C1CCCCC1` [Compound 272, N-((1-(2-(cyclohexyl(methyl)amino)acetyl)piperidin-4-yl)methyl)-3-fluoro-5-(trifluoromethyl)benzamide], the IC50 was 2840 nM in experiment [1] and above 10000 nM in experiment [2].

As for `CN(CCN1CCC(CNC(=O)c2cc(F)cc(C(F)(F)F)c2)CC1)C(=O)C1(C)CC1` [Compound 518, N-((1-(2-(N,1-dimethylcyclopropanecarboxamido)ethyl)piperidin-4-yl)methyl)-3-fluoro-5-(trifluoromethyl)benzamide], the IC50 in experiment [1] was determined as 1310 nM; in experiment [2], 810 nM.

In the case of `COc1cc(C(=O)NCC2CCN(CCNS(=O)(=O)C3CC3)CC2)cc(C(F)(F)F)c1` [Compound 235, N-((1-(2-(cyclopropanesulfonamido)ethyl)piperidin-4-yl)methyl)-3-methoxy-5-(trifluoromethyl)benzamide], the IC50 in experiment [1] is below 300 nM; in experiment [2] it was 440 nM.

As for `O=C(NCC1CCN(CCN2C(=O)NC3(CCCCC3)C2=O)CC1)c1cc(F)cc(C(F)(F)F)c1` [Compound 568, N-((1-(2-(2,4-dioxo-1,3-diazaspiro[4.5]decan-3-yl)ethyl)piperidin-4-yl)methyl)-3-fluoro-5-(trifluoromethyl)benzamide], the IC50 in experiment [1] is 1360 nM; in experiment [2] it was 890 nM.

Take `CC(C)(C)C(=O)NCCN1CCC(CNC(=O)c2cc(Br)cc(C(F)(F)F)c2)CC1` [Compound 302, 3-bromo-N-((1-(2-pivalamidoethyl)piperidin-4-yl)methyl)-5-(trifluoromethyl)benzamide]: the IC50 in experiment [1] is below 300 nM; in experiment [2], 300 nM.

Take `O=C(NCC1CCN(CCNC(=O)C2(C(F)(F)F)CC2)CC1)c1cc(C(F)(F)F)cc(C(F)(F)F)c1` [Compound 342, 3,5-bis(trifluoromethyl)-N-((1-(2-(1-(trifluoromethyl)cyclopropanecarbox-amido)ethyl)piperidin-4-yl)methyl) benzamide]: the results for the IC50 in experiment [1] and in experiment [2] were below 300 nM and 70 nM, respectively.

For the compound `CC(C)(C(=O)NCCN1CCC(CNC(=O)c2cc(F)cc(C(F)(F)F)c2)CC1)C(F)(F)F` [Compound 339, 3-fluoro-N-((1-(2-(3,3,3-trifluoro-2,2-dimethylpropanamido)ethyl)piperidin-4-yl)methyl)-5-(trifluoromethyl)benzamide], the IC50 is below 300 nM in experiment [1] and 130 nM in experiment [2].

Turning to `O=C(NCC1CCN(C(=O)CNC2CCCCC2)CC1)c1cc(F)cc(C(F)(F)F)c1` [Compound 276, N-((1-(2-(cyclohexylamino)acetyl)piperidin-4-yl)methyl)-3-fluoro-5-(trifluoromethyl)benzamide], the values for the IC50 in experiment [1] and in experiment [2] were 310 nM and 1090 nM, respectively.

Regarding `O=C(NC1CCCCC1)OCCN1CCC(CNC(=O)c2cc(F)cc(C(F)(F)F)c2)CC1` [Compound 530, 2-(4-((3-fluoro-5-(trifluoromethyl)benzamido)methyl)piperidin-1-yl)ethyl cyclohexylcarbamate], the IC50 in experiment [1] came to 590 nM; in experiment [2], 860 nM.

With `Cc1cc(C)cc(C(=O)NCC2CCN(CCNS(=O)(=O)C3CC3)CC2)c1` [Compound 233, N-((1-(2-(cyclopropanesulfonamido)ethyl)piperidin-4-yl)methyl)-3,5-dimethylbenzamide], the values for the IC50 in experiment [1] and in experiment [2] were 2040 nM and 1380 nM, respectively.

With `O=C(NCC1CCN(C(=O)CN2CCCC(C(F)(F)F)C2)CC1)c1cc(C(F)(F)F)cc(C(F)(F)F)c1` (stereo not shown) [Compound 255, 3,5-bis(trifluoromethyl)-N-((1-(2-(3-(trifluoromethyl)piperidin-1-yl)acetyl)piperidin-4-yl)methyl)benzamide], the IC50 in experiment [1] was 570 nM; in experiment [2], 2340 nM.

For the compound `CCCNC(=O)CN1CCC(CNC(=O)c2cc(C)cc(C)c2)CC1` [Compound 445, 3,5-dimethyl-N-((1-(2-oxo-2-(propylamino)ethyl)piperidin-4-yl)methyl)benzamide], the half-maximal inhibitory concentration (IC50) in experiment [1] and in experiment [2] was above 10000 nM in each case.
